The target in this assay is T1, total muscarinic receptor.
T1 construct: gene Chrm1
The assay is classed as biochemical, Rattus norvegicus. The note with it: control rats; striatal membranes; 1 nM [3H]QNB; Tris-HCl-EDTA pH 7.4; 22°C; one-site fit; unit not printed (concentrations in M); logarithmic value; EC50 stated to be same as IC50. An excerpt:
[3H]QNB displacement, filtration on total muscarinic receptor

Regarding `CN1[C@@H]2CC[C@H]1CC(OC(=O)C(CO)c1ccccc1)C2` (stereo partly shown) [atropine], the “Log (EC50)” value is -7.076.

(Values after paper PMC2682793, “Enhanced muscarinic M1 receptor gene expression in the corpus striatum of streptozotocin-induced diabetic rats” (Journal of Biomedical Science, 2009).)
